“Also recorded” adds a separate entry of the source. Values belong to the compound of their own block, whether it stands above or below them. Where a SMILES comes first, the peptide text is derived from it. [ ]: non-standard residue; d: D form. The star is where a group is joined. AMC = Cc1cc(=O)oc2cc(N*)ccc12; pGlu = O=C1CC[C@@H](C(=O)O)N1; NHBn = c1ccc(CN*)cc1
Key:
[1] = molecular target: T1, TRH-DE (Sus scrofa, UniProt A0A287AP33); assay: continuous coupled fluorometric TRH-DE assay (TRHAMC substrate, DPP-IV coupling enzyme); assay type: biochemical, porcine; settings: for inhibition at 1000 µM: peptide 1 mM, 5 μM TRHAMC substrate
T1 construct: The inventor purified TRH-DE from porcine brain according to purification procedures previously published by Dr. K. Bauer; from tissue; host or cells: porcine brain (TRH-DE); bovine kidney (DPP-IV, gift from Dr. C. H. Williams)
Protocol: (§1) The inventor purified TRH-DE from porcine brain according to purification procedures previously published by Dr. K. Bauer, (Max-Planck-Institut, Hannover, Germany) (1). TRH-DE was purified almost 20,000 fold. […] Dipeptidyl peptidase IV (DPP-IV) (EC 3.4.14.5), purified from bovine kidney (7.7 mg ml^−1, specific activity of 17.5 U mg^−1 with Gly-ProAMC as substrate), was obtained as a gilt from Dr. C. H. Williams (Queen's University Belfast, U.K). (DPP-IV was used as the coupling enzyme used in the fluorometric assays).
(§2) One unit (U) of enzyme activity was defined as that amount catalysing the formation of one μmol of product in one minute under the standard conditions employed. All incubations in the assays described below were carried out in 20 mM potassium phosphate buffer, pH 7.5, at 37° C.
Kinetic analysis of peptides that are not hydrolysed by TRH-DE. A recently-developed continuous coupled fluorometric assay (23) was used to investigate the ability of those library peptides that were not hydrolysed by TRH-DE to inhibit TRHAMC degradation by TRH-DE. In this assay, TRHAMC is the substrate and dipeptidyl peptidase IV (DPP-IV) (EC 3.4.14.5) is the coupling enzyme. The reaction sequence is:
The reaction was monitored continuously by measuring the increase in AMC fluorescence. A linear progress curve with no discernible lag period was observed when the reaction was monitored over a period of 10 minutes. Nevertheless, data sampling was not commenced until 100 s from the start of the reaction to ensure measurements were taken after a steady state had been reached (see Ref. 23).
In a preliminary experiment, the peptides were screened for their ability to inhibit TRH-DE activity. The initial rate of TRHAMC hydrolysis by TRH-DE was measured by incubating 5 μM TRHAMC with 1.23 μg DPP-IV and 0.32 μg TRH-DE, both in the absence and presence of each library peptide (1 mM final concentration) under standard assay conditions (23). In each case the percentage inhibition (i%) was calculated using the equation i%=100(1-vi/vo), where vi and vo are the initial velocities in the presence and absence of peptide, respectively.
Since these peptides were poor inhibitors they were not examined further. The Ki values for the remainder of the peptides were determined by measuring their effects on TRHAMC degradation by TRH-DE using the continuous assay. Data were collected in duplicate at five different substrate concentrations and at least three different concentrations of each peptide.
Reversibility and time dependence of the inhibition produced by Glp-Gln-ProNH2, Glp-Asn-ProNH2 and Glp-Asn-ProAMC were examined by initially preincubating TRH-DE with each peptide at 37° C. for various periods up to 75 min. To investigate time dependence, the enzyme-peptide solution was subsequently added to the reaction mixture containing TRHAMC, DPP-IV, buffer and peptide, and TRH-DE activity was measured using the continuous assay. The final concentration of Glp-Gln-ProNH2, Glp-Asn-ProNH2 and Glp-Asn-ProAMC used was 400, 160 and 1 μM, respectively. […] TRH-DE activity was not affected by pre-incubation at 37° C.
Fluorescence measurements were made using a Perkin Elmer LS 50B Luminescence Spectrometer fitted with a thernostated cell holder. Wavelengths for excitation and emission were set at 370 nm and 440 nm, respectively, with slit widths of 10 nm and 5 nm, respectively.

[2] = molecular target: T1, TRH-DE; assay: HPLC assay of peptide hydrolysis by TRH-DE (Glp production); assay type: biochemical, porcine; settings: 1 mM peptide incubated with TRH-DE 18 h at 37° C., HPLC
Protocol: as §1, §2
Kinetic analysis of the peptide library using HPLC—The ability of each peptide in the library to act as a TRH-DE substrate was assessed using HPLC. As an initial screen, 1 mM peptide was incubated with 0.8 μg TRH-DE in a total volume of 1 ml for 18 h at 37° C. Control samples were included in which peptide (1 mM) or Glp (0.2 mM-0.8 mM) were incubated under identical conditions in the absence of TRH-DE. TRH-DE activity was terminated by the addition of TFA (0.15% v/v) and samples were then analysed using HPLC as described previously (24). Products resulting from TRH-DE hydrolysis could be separated on a C-18 reverse-phase column (Hypersil, UK) using a linear gradient of 0-70% acetonitrile in 0.08% (v/v) TFA. The concentration of Glp formed by the action of TRH-DE on the peptide library was measured by UV absorbance at 206 nm with a quantitative detection limit of 0.1 mM for a 40 μl injection volume, employing a signal to noise ratio of 10. Following the incubation of each peptide with TRH-DE, evidence of Glp in the sample was taken to indicate that the peptide was a TRH-DE substrate.
The rates of hydrolysis for each of those peptides identified as substrates were then compared by measuring Gip production using microassays with shorter incubation times. In these assays peptide (1 mM) was incubated at 37° C. in a total volume of 100 μl. 0.8-3.2 μg TRH-DE and incubations times of 5 min to 18 h were used routinely. Measurements were made in triplicate. The rate of TRH-OH hydrolysis was also measured by this method.

[3] = calculated from percent inhibition measured in duplicate at 5 μM substrate
[4] = from the percent inhibition (n = 3) in the presence of 5 μM substrate
[5] = non-linear regression, five TRHAMC concentrations and at least three peptide concentrations, mean±S.D. (n=3)
[6] = estimated from <20% inhibition at 1 mM peptide with the competitive inhibition relationship

T1 sequence (A0A287AP33 1-1066): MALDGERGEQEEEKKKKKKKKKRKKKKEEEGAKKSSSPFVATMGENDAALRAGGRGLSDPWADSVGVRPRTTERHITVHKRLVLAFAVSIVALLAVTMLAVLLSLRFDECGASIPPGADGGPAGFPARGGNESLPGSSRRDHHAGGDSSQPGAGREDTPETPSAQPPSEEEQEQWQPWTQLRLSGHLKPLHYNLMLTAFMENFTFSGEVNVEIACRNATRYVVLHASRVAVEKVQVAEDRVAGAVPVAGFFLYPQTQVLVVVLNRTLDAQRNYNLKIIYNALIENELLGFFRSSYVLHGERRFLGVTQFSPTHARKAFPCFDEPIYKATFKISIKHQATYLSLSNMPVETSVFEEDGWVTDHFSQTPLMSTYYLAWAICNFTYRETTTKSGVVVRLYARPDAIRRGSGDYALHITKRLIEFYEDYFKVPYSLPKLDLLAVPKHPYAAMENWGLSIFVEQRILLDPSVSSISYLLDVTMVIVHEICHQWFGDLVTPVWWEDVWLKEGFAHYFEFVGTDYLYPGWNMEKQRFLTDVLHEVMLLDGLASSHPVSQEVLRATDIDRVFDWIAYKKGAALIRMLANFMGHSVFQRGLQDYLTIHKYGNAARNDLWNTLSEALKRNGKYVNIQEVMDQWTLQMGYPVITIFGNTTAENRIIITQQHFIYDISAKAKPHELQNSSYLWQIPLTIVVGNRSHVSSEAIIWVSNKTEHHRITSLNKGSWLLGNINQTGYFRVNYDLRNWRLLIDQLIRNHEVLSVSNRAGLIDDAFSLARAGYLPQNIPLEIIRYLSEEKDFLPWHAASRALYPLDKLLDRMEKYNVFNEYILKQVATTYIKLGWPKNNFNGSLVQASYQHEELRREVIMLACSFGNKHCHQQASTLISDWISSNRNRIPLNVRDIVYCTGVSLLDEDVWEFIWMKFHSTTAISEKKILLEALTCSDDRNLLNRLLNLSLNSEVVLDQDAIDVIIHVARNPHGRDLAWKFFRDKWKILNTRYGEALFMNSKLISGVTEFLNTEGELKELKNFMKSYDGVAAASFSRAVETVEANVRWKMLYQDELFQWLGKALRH

Compound: NC(=O)C[C@H](NC(=O)[C@@H]1CCC(=O)N1)C(=O)N1CCC[C@H]1C(=O)Nc1ccccc1O
Ki [1, 3]: 6.62 µM

Compound: NC(=O)C[C@H](NC(=O)[C@@H]1CCC(=O)N1)C(=O)N1CCC[C@H]1C(=O)Nc1cccc2c1CCCC2
Ki [1, 3]: 9.31 µM

Compound: Cc1cc(=O)oc2cc(NC(=O)[C@H](Cc3c[nH]c4ccccc34)NC(=O)[C@H](Cc3ccc(O)cc3)NC(=O)[C@@H]3CCCN3C(=O)[C@H](CC(N)=O)NC(=O)[C@@H]3CCC(=O)N3)ccc12 [Glp-Asn-Pro-Tyr-Trp-AMC] ([pGlu]NPYW-{AMC})
Ki [1, 5]: 0.04 µM

Compound: NC(=O)[C@@H]1CCCN1C(=O)[C@H](CC(=O)O)NC(=O)[C@@H]1CCC(=O)N1 [Glp-Asp-ProNH2] ([pGlu]-Asp-Pro-NH2)
Ki [1, 6]: > 1000 µM
inhibition at 1000 µM [1]: 1%
hydrolysis by TRH-DE (release of Glp) [2]: No detectable Glp

Compound: NC(=O)C[C@@H](NC(=O)[C@@H]1CCC(=O)N1)C(=O)N1CCC[C@H]1C(N)=O [Glp-D-Asn-ProNH2] ([pGlu]-[dN]-Pro-NH2)
Ki [1, 6]: > 1000 µM
inhibition at 1000 µM [1]: 2%
hydrolysis by TRH-DE (release of Glp) [2]: No detectable Glp

Compound: NC(=O)CC[C@H](NC(=O)[C@@H]1CCC(=O)N1)C(=O)N1CCC[C@H]1C(N)=O [Glp-Gln-ProNH2] ([pGlu]-Gln-Pro-NH2)
Ki [1, 5]: 69 ± 4.4 µM
inhibition at 1000 µM [1]: 83%
reversibility and time dependence of inhibition ([1]; preincubation with TRH-DE up to 75 min at 37° C., Glp-Gln-ProNH2 400, Glp-Asn-ProNH2 160, Glp-Asn-ProAMC 1 μM): fully reversible and not time-dependent
hydrolysis by TRH-DE (release of Glp) [2]: not hydrolyzed at all; also recorded: No detectable Glp

Compound: NC(=O)[C@@H]1CCCN1C(=O)CNC(=O)[C@@H]1CCC(=O)N1 [Glp-Gly-ProNH2] ([pGlu]-Gly-Pro-NH2)
Ki [1, 6]: > 1000 µM
inhibition at 1000 µM [1]: 8%
hydrolysis by TRH-DE (release of Glp) [2]: No detectable Glp

Next, values leading:

Ki [1, 3]: 63.2 µM
Compound: NC(=O)C[C@H](NC(=O)[C@@H]1CCC(=O)N1)C(=O)N1CCC[C@H]1C(=O)NC1CCCc2ccccc21 (single isomer, unassigned)

Ki [1, 3]: 22.4 µM
Compound: NC(=O)C[C@H](NC(=O)[C@@H]1CCC(=O)N1)C(=O)N1CCC[C@H]1C(=O)NC1CCCc2ccccc21 (single isomer, unassigned) [1,2,3,4-tetrahydro-1-naphthylamide isomer 2]

Ki [1, 3]: 9.95 µM
Compound: COc1ccc(Cl)cc1NC(=O)[C@@H]1CCCN1C(=O)[C@H](CC(N)=O)NC(=O)[C@@H]1CCC(=O)N1 [5-chloro-2-methoxy anilide]

Ki [1, 3]: 11.9 µM
Compound: NC(=O)C[C@H](NC(=O)[C@@H]1CCC(=O)N1)C(=O)N1CCC[C@H]1C(=O)NCc1ccccc1 [Benzylamide] ([pGlu]-Asn-Pro-NHBn)

Ki [1, 4]: 0.08 µM
Compound: Cc1cc(=O)oc2cc(NC(=O)[C@H](Cc3c[nH]c4ccccc34)NC(=O)[C@@H]3CCCN3C(=O)[C@H](CC(N)=O)NC(=O)[C@@H]3CCC(=O)N3)ccc12 [Glp-Asn-Pro-Trp-AMC] ([pGlu]NPW-{AMC})

Ki [1, 4]: 5.17 µM
Compound: NC(=O)C[C@H](NC(=O)[C@@H]1CCC(=O)N1)C(=O)N1CCC[C@H]1C(=O)N[C@@H](Cc1c[nH]c2ccccc12)C(N)=O [Glp-Asn-Pro-Trp-NH2] ([pGlu]NPW-NH2)

Ki [1, 4]: 8.11 µM
Compound: NC(=O)C[C@H](NC(=O)[C@@H]1CCC(=O)N1)C(=O)N1CCC[C@H]1C(=O)N[C@@H](Cc1c[nH]c2ccccc12)C(=O)N[C@@H](CO)C(=O)N[C@@H](Cc1ccc(O)cc1)C(N)=O [Glp-Asn-Pro-Trp-Ser-Tyr-NH2] ([pGlu]NPWSY-NH2)

Ki [1, 4]: 5.91 µM
Compound: NC(=O)C[C@H](NC(=O)[C@@H]1CCC(=O)N1)C(=O)N1CCC[C@H]1C(=O)N[C@@H](Cc1c[nH]c2ccccc12)C(=O)N[C@@H](Cc1ccc(O)cc1)C(N)=O [Glp-Asn-Pro-Trp-Tyr-NH2] ([pGlu]NPWY-NH2)

Ki [1, 4]: 10.3 µM
Compound: NC(=O)C[C@H](NC(=O)[C@@H]1CCC(=O)N1)C(=O)N1CCC[C@H]1C(=O)N[C@@H](Cc1ccc(O)cc1)C(N)=O [Glp-Asn-Pro-Tyr-NH2] ([pGlu]NPY-NH2)

Ki [1, 4]: 0.78 µM
Compound: NC(=O)C[C@H](NC(=O)[C@@H]1CCC(=O)N1)C(=O)N1CCC[C@H]1C(=O)N[C@@H](Cc1ccc(O)cc1)C(=O)N[C@@H](Cc1c[nH]c2ccccc12)C(N)=O [Glp-Asn-Pro-Tyr-Trp-NH2] ([pGlu]NPYW-NH2)

Source: patent US7378397B2 (The Provost, Fellows and Scholars of the College of the …, priority 2000, dated 2008)
